Data as given in US20140154269A1, “TARGETED NANOVECTORS AND THEIR USE FOR TREATMENT OF BRAIN TUMORS” (The Methodist Hospital Research Institute, priority 2011, published 2014).

Columns and labels:
[1] = cited from earlier work
[2] = tested on: immortalized human glioblastoma cell cultures; conditions: cited from earlier work
[3] = tested on: primary GBM cell cultures; test: Cell viability measurements (ddTUNEL, Dead Green, Hoechst staining) in primary GBM cultures; conditions: 24 h; PEG-HCCs 2.6 nM, GFAPAB 3.9 nM, SN-38 2 μM
Procedure: Total, viable, and dead glioma cell numbers in confluent primary GBM cell cultures were measured using ddTUNEL (a quantitative assay for 3′ OH DNA ends), Dead Green, and Hoechst stains. Cells were treated with GFAPAB/SN-38/PEG-HCCs or saline for 24 h.
Primary human glioblastoma or astrocytoma cells were prepared from tumors within 10 min of their excision. The tumors were broken up using a pipette and then grown in DMEM, 20% FBS, GlutaMax-I, sodium pyruvate and Pen/Strep, for 2 weeks. After this time, and in all presented data, the same media was used, except that sodium pyruvate was omitted. […] GBM and NHA were grown to confluency in the appropriate media on Costar 96-well growth plates (Corning, N.Y.C, NY, USA). […] Cells were grown for 24 h in the presence or absence of all effectors, in a total volume of 250 μL.
The biotinylated ddUTP and biotinylated blunt ended oligonucleotide probe was visualized using Texas Red labeled avidin. […]
Cells were counted at 4× magnification using a Nikon Eclipse TE2000-E fluorescent microscope equipped with a CoolSnap ES digital camera system (Roper Scientific) containing an CCD-1300-Y/HS 1392×1040 imaging array cooled by a Peltier device. Images were recorded using Nikon NIS-Elements software as JEP2000 files.

SMILES | Log P [1] | LD50 range reported by others [2] [µM] | toxicity towards GBM cells (average living cells from ddTUNEL, Dead Green, Hoechst) [3]
CCc1c2c(nc3ccc(O)cc13)-c1cc3c(c(=O)n1C2)COC(=O)[C@]3(O)CC [SN-38] | 1.87 | 5 to 10 | not toxic
CC[C@]1(O)C[C@@H]2CN(CCc3c([nH]c4ccccc34)[C@@](C(=O)OC)(c3cc4c(cc3OC)N(C)[C@H]3[C@@](O)(C(=O)OC)[C@H](OC(C)=O)[C@]5(CC)C=CCN6CC[C@]43[C@@H]65)C2)C1 [Vin, Vinblastine] | 4.8 | – | –
